Measured values: patent US11779014B2, “Adjuvants” (SYNGENTA PARTICIPATIONS AG, priority 2017, dated 2023)

Key:
Format in all cases: in vivo
Conditions in all cases: total surfactant 0.2% w/v, 21 days
[1] = tested on: Avena fatua (AVEFA); assay: Glasshouse adjuvancy test for pinoxaden on AVEFA
Experimental: The efficacy of 1:1 blends of oleyl 20EO with oleyl 20EO with either n-hexanoyl, n-octanoyl or 2-ethyl hexanoyl ester caps as adjuvants for the herbicide pinoxaden was tested in a glasshouse against two weed species, sown into standard soil in pots and cultivated under controlled conditions in a glasshouse (20/16° C. day/night; 16 hours light; 65% humidity). Pinoxaden was added to the spray tank as a standard EC (emulsifiable concentrate) formulation. The plants were sprayed with pinoxaden at rates of 7.5 or 15 grams of pesticide per hectare using a laboratory track sprayer which delivered the aqueous spray composition at a rate of 200 litres per hectare, using a flat fan nozzle (Teejet 11002VS) at 2 bar. The spray solutions also contained the oleyl 20EO alone or in the 1:1 blends with the capped surfactants. The adjuvants were added to the spray solution at a total surfactant rate of 0.2% w/v. All spray solutions also contained 10% w/w of iso-propanol. The weed species and their BBCH growth stage at spraying were Avena fatua (AVEFA; growth stage 13) and Setaria viridis (SETVI; growth stage 13). Each spray test was replicated three times. The test plants were then grown in a glasshouse under controlled conditions (20/16° C. day/night; 16 hours light; 65% humidity) and watered twice a day. The efficacy of the herbicide was assessed visually and expressed as a percentage of the leaf area killed. Samples were assessed at a time period of 21 days following application.
Dodecyl 23EO and hexadecyl 20EO were capped with an n-hexyl ether cap. The efficacy of 1:1 blends of these with their uncapped counterparts were tested as adjuvants for the herbicide pinoxaden was tested in a glasshouse against two weed species, sown into standard soil in pots and cultivated under controlled conditions in a glasshouse (20/16° C. day/night; 16 hours light; 65% humidity). Pinoxaden was added to the spray tank as a standard EC (emulsifiable concentrate) formulation. The plants were sprayed with pinoxaden at a.i. rates of 7.5 or 15 grams per hectare using a laboratory track sprayer which delivered the aqueous spray composition at a rate of 200 litres per hectare, using a flat fan nozzle (Teejet 11002VS) at 2 bar. The spray solutions tested included the capped and uncapped alone or in the 1:1 blends with the capped surfactants. The adjuvants were added to the spray solution at a total surfactant rate of 0.2% w/v. All spray solutions also contained 10% w/w of iso-propanol. The weed species and their BBCH growth stage at spraying was Avena fatua (AVEFA; growth stage 12). Each spray test was replicated three times. The test plants were then grown in a glasshouse under controlled conditions (20/16° C. day/night; 16 hours light; 65% humidity) and watered twice a day. The efficacy of the herbicide was assessed visually and expressed as a percentage of the leaf area killed. Samples were assessed at a time period of 21 days following application.
Oleyl 20EO was capped with -butyl, n-pentyl and n-benzyl caps. The efficacy of 1:1 blends of these with their uncapped counterparts were tested as adjuvants for the herbicide pinoxaden was tested in a glasshouse against two weed species, sown into standard soil in pots and cultivated under controlled conditions in a glasshouse (20/16° C. day/night; 16 hours light; 65% humidity). Pinoxaden was added to the spray tank as a standard EC (emulsifiable concentrate) formulation. The plants were sprayed with pinoxaden at a.i. rates of 7.5 or 15 grams per hectare using a laboratory track sprayer which delivered the aqueous spray composition at a rate of 200 litres per hectare, using a flat fan nozzle (Teejet 11002VS) at 2 bar. The spray solutions tested included the capped and uncapped alone or in the 1:1 blends with the capped surfactants. The adjuvants were added to the spray solution at a total surfactant rate of 0.2% w/v. All spray solutions also contained 10% w/w of iso-propanol.

[2] = tested on: Digitaria sanguinalis (DIGSA); assay: Glasshouse adjuvancy test for mesotrione on DIGSA
Experimental: (§1) Mesotrione was added to the spray tank as a standard SC (suspension concentrate) formulation. The plants were sprayed with mesotrione at rates of 30 or 60 grams of pesticide per hectare using a laboratory track sprayer which delivered the aqueous spray composition at a rate of 200 litres per hectare, using a flat fan nozzle (Teejet 11002VS) and an application volume of 200 litre/ha (at 2 bar). The spray solutions also contained the oleyl 20EO alone or in 1:1 blends with the capped surfactants. The adjuvants were added to the spray solution at a total surfactant rate of 0.2% w/v. All spray solutions also contained 10% w/w of iso-propanol. The weed species and their BBCH growth stage at spraying were Brachiaria platyphylla (BRAPL; growth stage 12-13), Commelina benghalensis (COMBE; growth stage 12-14) and Digitaria sanguinalis (DIGSA; growth stage 13). Each spray test was replicated three times. The test plants were then grown in a glasshouse under controlled conditions (24/18° C. day/night; 16 hours light; 65% humidity) and watered twice a day. The efficacy of the herbicide was assessed visually and expressed as a percentage of the leaf area killed. Samples were assessed at a time period of 21 days following application

[3] = tested on: Commelina benghalensis (COMBE); assay: Glasshouse adjuvancy test for mesotrione on COMBE
Experimental: as §1

CCCCCCCC/C=C\CCCCCCCCOCCOCCOCCOCCOCCOCCOCCOCCOCCOCCOCCOCCOCCOCCOCCOCCOCCOCCOCCOCCO [Oleyl 20EO, oleyl 20 ethoxylate]
Mean control ([1]; pinoxaden 7.5 g ai/ha, Example 4): 65.0%
Mean control ([1]; pinoxaden 15 g ai/ha, Example 4): 86.7%
Mean control ([1]; pinoxaden 15 g ai/ha, Example 9, growth stage 12): 92.7%
Mean control ([2]; mesotrione 30 g ai/ha): 68.3%
Mean control ([2]; mesotrione 60 g ai/ha): 75.0%
Mean control ([3]; mesotrione 30 g ai/ha): 66.7%
Mean control ([3]; mesotrione 60 g ai/ha): 76.7%
